Data taken from patent publication US20260115187A1, “TRICYCLIC SKELETON COMPOUND AND USE THEREOF IN PREPARATION OF ANTITUMOR DRUG” (ZHONGSHAN HOSPITAL, FUDAN UNIVERSITY, priority 2024, published 2026).

Key:
[1] = tested on: PLC/PRF/5 KSR2 OE (PLC cells overexpressing KSR2); assay: Cell IC50 assay (CCK8 cell viability), PLC/PRF/5 KSR2 OE; type: cell-based; settings: Homo sapiens, PLC-PRF-5; hepatoma cells, 72 h incubation, CCK8; read-out: IC50 value of cell viability, PLC/PRF/5 KSR2 OE (PLC cells overexpressing KSR2)
Procedure: (§1) (1) Cell Preparation: Hepatoma cells (PLC/PRF/5, sourced from the Chinese Academy of Sciences; MHCC97H, sourced from this research institute) in good growth condition are prepared. The cells are trypsinized, diluted, and seeded into 96-well cell culture plates. 1,000-3,000 cells are added per well. The plates are then placed in a cell culture incubator at 37° C. with 5% CO2. Drugs are added after the cells have adhered for 24 h.
(§2) (2) Drug Addition: The drugs are subjected to gradient dilution, typically setting 9 concentrations. Control groups containing no drug medium and medium containing only the drug solvent are also set up. The diluted drugs are added to the cell culture plates seeded the previous day. The plates are incubated for 72 h.
(§3) (3) CCK8 Assay for Cell Viability: CCK8 is mixed with culture medium at a 1:10 ratio. 100 μL of this mixture is added to each well of the cell culture plate. After incubating for 2-4 h, the OD values are measured using a microplate reader.
(§4) (4) Data Analysis: Based on the corresponding OD values, the data are compiled, IC50 curves are plotted, and the IC50 values are obtained.
(§5) (5) IC50 Verification: The theoretical IC50 value is identified from the IC50 curve. Drug concentrations at ½ times, 1 time, and 2 times this theoretical value are used for verification.

[2] = tested on: MHCC97H KSR2 OE (97H cells overexpressing KSR2); assay: Cell IC50 assay (CCK8 cell viability), MHCC97H KSR2 OE; type: cell-based; settings: Homo sapiens, hepatoma cells, 72 h incubation, CCK8, read-out: IC50 value of cell viability, MHCC97H KSR2 OE (97H cells overexpressing KSR2)
Procedure: as §1, §2, §3, §4, §5

Compound	IC50 [1] [µM]	IC50 [2] [µM]
CN(C)CC1CCN(CCCNC(=O)c2nn(C)c3c2CSc2ccccc2-3)C1 (stereo not shown) [Compound 53]	92	63
CN(C)C1CN(CCCNC(=O)c2nn(C)c3c2CSc2ccccc2-3)C1 [Compound 54]	6	5
Cn1nc(C(=O)NCCCN2CCC(N)CC2)c2c1-c1ccccc1SC2 [Compound 55]	4	5
Cn1nc(C(=O)NCCCN2CCC(N3CCN(S(C)(=O)=O)CC3)CC2)c2c1-c1ccccc1SC2 [Compound 56]	50	62
Cn1nc(C(=O)NCCCN2CCC(NC(=O)C3CC3)CC2)c2c1-c1ccccc1SC2 [Compound 57]	2	21
Cn1nc(C(=O)NCCCN2CCC(N3CCN(Cc4ccccc4)CC3)CC2)c2c1-c1ccccc1SC2 [Compound 58]	2	2
CC(=O)N1CCN(C2CCN(CCCNC(=O)c3nn(C)c4c3CSc3ccccc3-4)CC2)CC1 [Compound 59]	11	31
CC(C)N1CCN(C2CCN(CCCNC(=O)c3nn(C)c4c3CSc3ccccc3-4)CC2)CC1 [Compound 60]	2	4
CCN1CCN(C2CCN(C3CC(CNC(=O)c4nn(C)c5c4CSc4ccccc4-5)C3)CC2)CC1 (stereo not shown) [Compound 61]	0.2	1
Cn1nc(C(=O)NCCCN2CCC(N3CCN(C4CC4)CC3)CC2)c2c1-c1ccccc1SC2 [Compound 63]	12	10
Cn1nc(C(=O)NCCCN2CCC(N3CCN(CC4CC4)CC3)CC2)c2c1-c1ccccc1SC2 [Compound 64]	5	6
CN(Cc1ccccc1)C1CCN(CCCNC(=O)c2nn(C)c3c2CSc2ccccc2-3)CC1 [Compound 65]	8	14
COCCN1CCN(C2CCN(CCCNC(=O)c3nn(C)c4c3CSc3ccccc3-4)CC2)CC1 [Compound 66]	19	21
Cn1nc(C(=O)NCCCN2CCC(N3CCN(CCO)CC3)CC2)c2c1-c1ccccc1SC2 [Compound 67]	20	24
CN1CCN(C2CCN(CCCNC(=O)c3nn(C)c4c3COc3cc(Cl)ccc3-4)CC2)CC1 [Compound 68]	0.7	2
CN1CCN(C2CCN(CCCNC(=O)c3nn(C)c4c3COc3ccc(Cl)cc3-4)CC2)CC1 [Compound 69]	0.6	5
Cn1nc(C(=O)NCCCN2CCC(N3CCN(CC4COC4)CC3)CC2)c2c1-c1ccccc1SC2 [Compound 70]	39	9
CN1CCN(C2CCN(CCCNC(=O)c3nn(C)c4c3COc3cc(F)ccc3-4)CC2)CC1 [Compound 71]	8	5
CN1CCN(C2CCN(CCCNC(=O)c3nn(C)c4c3COc3c(Cl)cccc3-4)CC2)CC1 [Compound 72]	2	2
CN1CCN(C2CCN(CCCNC(=O)c3nn(C)c4c3COc3c(F)cccc3-4)CC2)CC1 [Compound 73]	12	3
CN1CC2CCC(C1)N2C1CCN(CCCNC(=O)c2nn(C)c3c2CSc2ccccc2-3)CC1 [Compound 74]	10	8
CN1CCN(C2CCN(CCCNC(=O)c3nn(C)c4c3CS(=O)(=O)c3ccccc3-4)CC2)CC1 [Compound 75]	18	105
CN1CCN(C2CCN(CCCNC(=O)c3nn(C)c4c3COc3ccc(F)cc3-4)CC2)CC1 [Compound 76]	18	22
CN1CCN(C2CN(C3CC(CNC(=O)c4nn(C)c5c4CSc4ccccc4-5)C3)C2)CC1 (stereo not shown) [Compound 77]	21	27
CN1CCN(C2CCN(C3CC(CNC(=O)c4nn(C)c5c4CSc4ccccc4-5)C3)CC2)CC1 (stereo not shown) [Compound 78]	12	6
Cn1nc(C(=O)NCCCN2CCC(N3CCN(CCC#N)CC3)CC2)c2c1-c1ccccc1SC2 [Compound 79]	57	40
